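Interpolation was linear, between the two tested concentrations surrounding the appropriate level; five concentrations were tested over 48 hours in 96-well plates. GI50 marks 50% less growth.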 The source made the active and inactive calls. Rule as the data show it: active = GI50 up to about 1.1 µM and inactive = higher. A value given as a limit tells only on which side of the number the result lay.

Common to all, as to experiment: DTP human tumour cell line panel, 48 h
The test system of assay [1] is SK-OV-3.
The test system of assay [2] is KM12.
For assay [3], the system named is A549.
Assay [4] has as its system EKVX.
Assay [5] concerns HOP-92.
Assay [6] concerns MDA-MB-231.
Assay [7] has as its system A498.
Assay [8] deals with SW-620.
Assay [9] relates to UACC-257.
Assay [10] has as its system 786-0.
For assay [11], the system named is SK-MEL-5.
Assay [12] concerns RXF 393.
Assay [13] has as its system BT-549.
Assay [14] concerns MDA-MB-435.
The subject of assay [15] is NCI-H522.
The subject of assay [16] is SF-268.
Assay [17] concerns OVCAR-4.
In assay [18] the test system is SK-MEL-2.
Assay [19] deals with OVCAR-5.

For the compound `O=C(c1ccccc1)c1ccc2[nH]c(-c3c(Cl)c(Cl)c(Cl)c(Cl)c3-c3nnc(-c4ccccc4)o3)nc2c1`, the GI50 in [1] was 50.8 µM (inactive); in [2], 22.3 µM (inactive); in assay [3] it was 25.8 µM (inactive); in assay [4], 54.1 µM (inactive); in [5] it was 35.7 µM (inactive); in assay [6], 25.4 µM (inactive). Further, the GI50 in [7] is 12.1 µM (inactive); in assay [8], 29.7 µM (inactive); in [9], 80.2 µM (inactive); in assay [10], 36.6 µM (inactive); in assay [11], 6.7 µM (inactive); in assay [12], 5.47 µM (inactive). Further, the GI50 in assay [13] was 46 µM (inactive); in assay [14] it was 3.51 µM (inactive); in assay [15] it was 6.28 µM (inactive); in [16] it was 31.4 µM (inactive); in assay [17], 20.7 µM (inactive); in assay [18], 20 µM (inactive). For the same compound, in assay [19], the GI50 is 67.5 µM (inactive).

As to `NC1=CN(CCCO)C2=N/C(=C\c3ccco3)C(=O)N12`, the GI50 in assay [1], in assay [2], in assay [3], in assay [4], in assay [5] and in assay [6] was > 100 µM (inactive) throughout. The GI50 in assay [7] was > 100 µM (inactive); in [8], > 100 µM (inactive); in assay [9] it was 48.9 µM (inactive); in [10] it was > 100 µM (inactive); in [11], > 100 µM (inactive); in assay [12], > 100 µM (inactive). Moreover, the GI50 in [13], in [14], in assay [15], in assay [16], in assay [17] and in [18] was > 100 µM (inactive) throughout. For the same compound, the GI50 in assay [19] is > 100 µM (inactive).

Turning to `C[N+](C)(C)CC(=O)N/N=C(\Cc1nc2ccc([N+](=O)[O-])cc2nc1O)C(=O)Nc1nc2ccc([N+](=O)[O-])cc2s1`, the GI50 in assay [1] was 34 µM (inactive); in assay [2], 45.2 µM (inactive); in [3], 36.3 µM (inactive); in assay [4], 25 µM (inactive); in [5] it was 29 µM (inactive); in assay [6] it was > 100 µM (inactive). In addition, the GI50 in assay [7] is 51.5 µM (inactive); in assay [8] it was 78 µM (inactive); in assay [9], > 100 µM (inactive); in assay [10] it was 93.8 µM (inactive); in assay [11], 37.3 µM (inactive); in assay [12] it was 41.3 µM (inactive). The GI50 in assay [13] is 29.3 µM (inactive); in assay [14] it was 85.1 µM (inactive); in [15], 13.3 µM (inactive); in [16] it was 34 µM (inactive); in assay [17], 30 µM (inactive); in [18], 28.1 µM (inactive). Further, in [19], the GI50 was > 100 µM (inactive).

With `CCOC(=O)c1ccc(-c2cccs2)[nH]1`, the GI50 in assay [1] is > 62.7 µM (inactive); in assay [2] it was > 100 µM (inactive); in [3], > 62.5 µM (inactive); in [4], 38.8 µM (inactive); in assay [5], 12.1 µM (inactive); in assay [6] it was > 61.8 µM (inactive). Further, the GI50 in assay [7] is > 55.5 µM (inactive); in assay [8] it was > 84.7 µM (inactive); in assay [9], 91.6 µM (inactive); in assay [10], > 100 µM (inactive); in [11], 30.8 µM (inactive); in assay [12], > 66.4 µM (inactive). For the same compound, the GI50 is > 63.1 µM (inactive) in assay [13]; 44.3 µM (inactive) in [14]; 32.7 µM (inactive) in [15]; > 92 µM (inactive) in assay [16]; 31.6 µM (inactive) in [17]; > 100 µM (inactive) in [18]. Moreover, the GI50 in [19] is > 57 µM (inactive).

As to `Cc1c2cccc-2c(OCCO)cc2c1[nH]c1ccccc12`, the GI50 in assay [1] is 3.27 µM (inactive); in [2], 2.58 µM (inactive); in [3], 3.15 µM (inactive); in [4], 1.04 µM (active); in [5], 2.75 µM (inactive); in [6] it was 1.98 µM (inactive). For the same compound, the GI50 is 11.8 µM (inactive) in assay [7]; 3.52 µM (inactive) in assay [8]; 3.15 µM (inactive) in assay [9]; 2.24 µM (inactive) in assay [10]; 1.34 µM (inactive) in [11]; 2.37 µM (inactive) in assay [12]. Besides, the GI50 is 2.92 µM (inactive) in assay [13]; 3.53 µM (inactive) in assay [14]; 1.83 µM (inactive) in assay [15]; 1.65 µM (inactive) in assay [16]; 3.43 µM (inactive) in [17]; 3.72 µM (inactive) in assay [18]. In assay [19], the GI50 was 2.26 µM (inactive).

Take `CC1(C)OC2C(O)C(CO)OC2(C(F)F)O1` (stereo not given): the GI50 in assay [1], in assay [2], in [3], in assay [4], in assay [5] and in assay [6] was > 100 µM (inactive) in each case. Moreover, the GI50 was > 100 µM (inactive) in [7]; > 100 µM (inactive) in assay [8]; > 100 µM (inactive) in assay [9]; > 100 µM (inactive) in [10]; > 85.3 µM (inactive) in [11]; > 100 µM (inactive) in assay [12]. The GI50 in assay [13] is > 100 µM (inactive); in assay [14] it was > 63.5 µM (inactive); in assay [15], > 100 µM (inactive); in assay [16], > 100 µM (inactive); in assay [17], > 100 µM (inactive); in assay [18] it was > 100 µM (inactive). The GI50 in [19] is > 100 µM (inactive).

For `NC(Cc1nnn[nH]1)C(=O)O` (stereo not given), the GI50 in assay [1], in assay [2], in assay [3], in assay [4], in [5] and in assay [6] was > 100 µM (inactive) throughout. The GI50 in [7], in [8], in assay [9], in [10], in assay [11] and in [12] was > 100 µM (inactive) in each case. Moreover, the GI50 in assay [13], in assay [14], in assay [15], in assay [16], in assay [17] and in [18] was > 100 µM (inactive) each time. In assay [19], the GI50 is > 100 µM (inactive).

In the case of `COc1cc2c3c(cc(Cl)nc3c1OC)C(O)(CC(C)=O)C(=O)N2` (stereo not given), the GI50 in [1] was > 47.1 µM (inactive); in [2], > 45.5 µM (inactive); in assay [3] it was > 42.9 µM (inactive); in assay [4], 16.2 µM (inactive); in assay [5], 19.1 µM (inactive); in assay [6], 17 µM (inactive). Moreover, the GI50 in [7] is 18.3 µM (inactive); in assay [8], 27.4 µM (inactive); in [9] it was 8 µM (inactive); in [10] it was 17.1 µM (inactive); in [11], > 41 µM (inactive); in assay [12], 16.3 µM (inactive). Moreover, the GI50 in [13] is 16.8 µM (inactive); in [14], 16.4 µM (inactive); in assay [15], 8.97 µM (inactive); in assay [16], 6.07 µM (inactive); in [17], 17.8 µM (inactive); in assay [18] it was 20.3 µM (inactive). Also, the GI50 in [19] was > 42.4 µM (inactive).

Consider `CC1=C2O[C@]3(O)C=C2C(=C(O)C1=O)[C@@H]1O[C@H](CC[C@H](C)/C=C(\C)C[C@@H](C)C[C@@H]3C)[C@H](C)[C@H](O)[C@H]1C` [KENDOMYCIN], for which the GI50 in assay [1] was 1.12 µM (active); in assay [2], 0.661 µM (active); in assay [3], 0.982 µM (active); in [4], 0.356 µM (active); in assay [5], 0.13 µM (active); in assay [6], 0.151 µM (active). In addition, the GI50 in assay [7] is 1.58 µM (inactive); in [8], 0.582 µM (active); in assay [9], 0.239 µM (active); in [10], 0.149 µM (active); in assay [11] it was 0.498 µM (active); in assay [12], 0.161 µM (active). Further, the 50% growth inhibitory concentration (GI50) in [13] is 0.331 µM (active); in [14] it was 0.145 µM (active); in assay [15], 0.218 µM (active); in assay [16], 0.354 µM (active); in [17], 0.194 µM (active); in assay [18], 0.247 µM (active). Also, the GI50 in [19] is 1.31 µM (inactive).

`C=C1C(=O)O[C@@H]2C[C@@H]3[C@]4(CC[C@]5(C)[C@@H]([C@H](C)CC/C=C(\C)C=O)CC[C@@]35C)C[C@]4(CCC(=O)OC)[C@H]12`: the GI50 is 3.52 µM (inactive) in assay [1]; 1.86 µM (inactive) in assay [2]; 6.64 µM (inactive) in [3]; 2.99 µM (inactive) in assay [4]; 1.94 µM (inactive) in assay [5]; 1.95 µM (inactive) in assay [6]. The GI50 in assay [7] is 2.79 µM (inactive); in assay [8], 1.72 µM (inactive); in [9], 0.454 µM (active); in assay [10], 1.71 µM (inactive); in assay [11] it was 0.83 µM (active); in [12], 1.89 µM (inactive). For the same compound, the GI50 is 2.03 µM (inactive) in assay [13]; 1.51 µM (inactive) in [14]; 3.09 µM (inactive) in assay [15]; 1.72 µM (inactive) in assay [16]; 1.7 µM (inactive) in assay [17]; 1.77 µM (inactive) in [18]. Further, the GI50 in assay [19] was 2.16 µM (inactive).

The values are drawn from ChEMBL document CHEMBL1201862, “PubChem BioAssay data set” (2004).
